Source: patent US5461142A, “Phosphorylated derivatives of cardiodilatin/ANF peptides” (Pharma Bissendorf Peptide GmbH, priority 1987, dated 1995)
Entries after “also recorded” stand apart in the source; their conditions may differ. No end group written: not given here.

System: rabbit aorta muscle strips
Assay: Bioactivity test: relaxation of norepinephrine-precontracted rabbit aorta muscle strips in organ bath
Assay type: cell-based, New Zealand rabbits
Details: for relaxation activity: Example 6, tested as in Example 5, corresponding concentrations
Experimental: Muscle strips of rabbit aorta were first contracted by the action of a solution of norepinephrine (10^-7 M). After constant conditions had been adjusted, the peptides were added (position of the arrow).
The muscle relaxation continues only after a further addition of unphosphorylated alpha-nANaP.
Aortae of New Zealand rabbits were prepared. The muscular tension was measured with a muscle strip in an organ bath containing physiological saline. The strips were pre-contracted with a solution of 10^-6 M of norepinephrin, then at fill relaxation. For the assay, a further contraction was induced with 10^-7 M of norepinephrin. After constant contraction conditions had been reached, the peptides were applied.
Alpha-hANaP was phosphorylated according to EXAMPLE 1 in the presence of ATP and the catalytic subunit according to EXAMPLE 1. For control, unphosphorylated alpha-hANaP was incubated under the same conditions, however in the absence of ATP. […] Stepwise addition of unphosphorylated, phosphorylated and in turn unphosphorylated alpha-hANaP allows clearly to recognize that only unphosphorylated alpha-hANaP exerts a significant relaxing effect in comparison to phosphorylated peptide. If the addition is reversed, first phosphorylated, then unphosphorylated and again phosphorylated alpha-hANaP, the corresponding reversed relaxation effect is found.
CDD-32 (Urodilatin) is phosphorylated according to Example 1 and investigated for its biological activity in the same manner as in Example 5.

Substance | relaxation activity | effect onto the smooth vascular musculature (relaxation) (FIG. 5, strips contracted with norepinephrine 10^-7 M, peptide final concentration 0.3 to 0.6×10^-9 M) | muscle relaxation of precontracted rabbit aorta strips (FIG. 7 / Example 5, final concentration 0.3×10^-9 M, stepwise addition, listed as phosphorylated alpha-hANaP) | relative relaxation capability (FIG. 8, phosphorylated versus unphosphorylated form at corresponding concentration)
Urodilatin [reference compound] | dose-dependant relaxation activity | – | – | –
phosphorylated CDD-28: alpha-hANaP (positions 99-126 of gamma-hANaP) phosphorylated with c-AMP-dependent proteinkinase; formula I with R = H, X = phosphate (SLRRSSCFGGRMDRIGAQSGLGCNSFRY; ends and bridges not checked; also: phosphorylated (phosphate), site not given here; UniProt P01160 124-151, looked up) | – | only a slight relaxation | an effect next to nothing; also recorded: negligible effect | –
phosphorylated CDD-32: CDD-32 (urodilatin, amino acids 95-126 of gamma-hANaP) phosphorylated according to Example 1 (TAPRSLRRSSCFGGRMDRIGAQSGLGCNSFRY; ends and bridges not checked; also: phosphorylated (phosphate), site not given here; UniProt P01160 120-151, looked up) | distinctly reduced relaxation | – | – | significantly lower relaxation capability than that of the unphosphorylated form
